# From US20250230193A1, “CYCLIC COMPOUND HAVING SELECTIVE KRAS INHIBITORY EFFECT ON HRAS AND NRAS” (CHUGAI SEIYAKU KABUSHIKI KAISHA, priority 2022, published 2025)
# Columns and labels:
# [1] = target: GDP-bound NRAS wild-type protein (Homo sapiens, UniProt P01111); assay: Binding to NRAS by surface plasmon resonance (SPR), Single Cycle Kinetics; conditions: SPR; KD ratio class
# [2] = target: GDP-bound HRAS wild-type protein (Homo sapiens, UniProt P01112); assay: Binding to HRAS by surface plasmon resonance (SPR), Single Cycle Kinetics; conditions: SPR; KD ratio class
# Chain of GDP-bound HRAS wild-type protein (P01112 whole entry): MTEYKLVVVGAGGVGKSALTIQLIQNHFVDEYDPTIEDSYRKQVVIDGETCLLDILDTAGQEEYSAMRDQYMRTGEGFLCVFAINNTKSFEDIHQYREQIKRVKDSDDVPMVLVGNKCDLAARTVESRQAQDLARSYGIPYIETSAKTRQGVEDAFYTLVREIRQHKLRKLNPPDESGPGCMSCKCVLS
# Chain of GDP-bound NRAS wild-type protein (P01111 whole entry): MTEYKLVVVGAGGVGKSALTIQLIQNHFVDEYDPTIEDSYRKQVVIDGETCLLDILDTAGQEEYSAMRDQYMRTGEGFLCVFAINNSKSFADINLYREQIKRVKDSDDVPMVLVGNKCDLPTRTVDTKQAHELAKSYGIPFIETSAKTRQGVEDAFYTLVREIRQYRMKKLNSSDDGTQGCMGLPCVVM
smiles,measurement,setting,value
CCO[C@@H]1C[C@H]2C(=O)NC3(CCC3)C(=O)N(C)[C@@H](C3CCCC3)C(=O)N(C)[C@H](C(=O)N(C)CCOC)CC(=O)N(C)[C@@H](CC(F)F)C(=O)N[C@@H]([C@@H](C)CC)C(=O)N(C)CC(=O)N(C)[C@H]3C/C=C\CCN(C3=O)[C@@H](Cc3ccc(C(F)(F)F)cc3)C(=O)N(C)CC(=O)N[C@@H](CCc3cc(F)c(C(F)(F)F)c(F)c3)C(=O)N2C1 [PP1320],NRAS/KRAS (ratio of KD value for GDP-bound NRAS wild-type protein to KD value for KRAS),[1],A (a compound having 10 or more and less than 20 is denoted as A)
same,HRAS/KRAS (ratio of KD value for GDP-bound HRAS wild-type protein to KD value for KRAS),[2],A (a compound having 10 or more and less than 20 is denoted as A)
CCO[C@@H]1C[C@H]2C(=O)NC3(CCC3)C(=O)N(C)[C@@H](C3CCCC3)C(=O)N(C)[C@H](C(=O)N(C)CCOC)CC(=O)N(C)[C@@H](CC)C(=O)N[C@@H]([C@@H](C)CC)C(=O)N(C)CC(=O)N(C)[C@H]3C/C=C\CCN(C3=O)[C@@H](Cc3ccc(C(F)(F)F)cc3)C(=O)N(C)CC(=O)N[C@@H](CCc3ccc(C(F)(F)F)c(OC)c3)C(=O)N2C1 [PP1321],NRAS/KRAS (ratio of KD value for GDP-bound NRAS wild-type protein to KD value for KRAS),[1],A (a compound having 10 or more and less than 20 is denoted as A)
same,HRAS/KRAS (ratio of KD value for GDP-bound HRAS wild-type protein to KD value for KRAS),[2],B (a compound having 3 or more and less than 10 is denoted as B)
CCO[C@@H]1C[C@H]2C(=O)NC3(CCC3)C(=O)N(C)[C@@H](C3CCCC3)C(=O)N(C)[C@H](C(=O)N(C)CCOC)CC(=O)N(C)[C@@H](CC)C(=O)N[C@@H]([C@@H](C)CC)C(=O)N(C)CC(=O)N(C)[C@H]3C/C=C\CCN(C3=O)[C@@H](Cc3ccc(C(F)(F)F)cc3)C(=O)N(C)CC(=O)N[C@@H](CCc3ccc4sccc4c3)C(=O)N2C1 [PP1322],NRAS/KRAS (ratio of KD value for GDP-bound NRAS wild-type protein to KD value for KRAS),[1],A (a compound having 10 or more and less than 20 is denoted as A)
same,HRAS/KRAS (ratio of KD value for GDP-bound HRAS wild-type protein to KD value for KRAS),[2],A (a compound having 10 or more and less than 20 is denoted as A)
CCO[C@@H]1C[C@H]2C(=O)NC3(CCC3)C(=O)N(C)[C@@H](C3CCCC3)C(=O)N(C)[C@H](C(=O)N(C)CCOC)CC(=O)N(C)[C@@H](CC(C)C)C(=O)N[C@@H]([C@@H](C)CC)C(=O)N(C)CC(=O)N(C)[C@H]3C/C=C\CCN(C3=O)[C@@H](Cc3ccc(C(F)(F)F)cc3)C(=O)N(C)CC(=O)N[C@@H](CCc3ccc(C(F)(F)F)c(OC)c3)C(=O)N2C1 [PP1324],NRAS/KRAS (ratio of KD value for GDP-bound NRAS wild-type protein to KD value for KRAS),[1],A (a compound having 10 or more and less than 20 is denoted as A)
same,HRAS/KRAS (ratio of KD value for GDP-bound HRAS wild-type protein to KD value for KRAS),[2],A (a compound having 10 or more and less than 20 is denoted as A)
CCO[C@@H]1C[C@H]2C(=O)NC3(CCC3)C(=O)N(C)[C@@H](C3CCCC3)C(=O)N(C)[C@H](C(=O)N(C)CCOC)CC(=O)N(C)[C@@H](CC(C)C)C(=O)N[C@@H]([C@@H](C)CC)C(=O)N(C)CC(=O)N(C)[C@H]3C/C=C\CCN(C3=O)[C@@H](Cc3ccc(C(F)(F)F)cc3)C(=O)N(C)CC(=O)N[C@@H](CCc3ccc4sccc4c3)C(=O)N2C1 [PP1325],NRAS/KRAS (ratio of KD value for GDP-bound NRAS wild-type protein to KD value for KRAS),[1],A (a compound having 10 or more and less than 20 is denoted as A)
same,HRAS/KRAS (ratio of KD value for GDP-bound HRAS wild-type protein to KD value for KRAS),[2],A (a compound having 10 or more and less than 20 is denoted as A)
CCO[C@@H]1C[C@H]2C(=O)NC3(CCC3)C(=O)N(C)[C@@H](C3CCCC3)C(=O)N(C)[C@H](C(=O)N(C)CCOC)CC(=O)N(C)[C@@H](CC(C)C)C(=O)N[C@@H]([C@@H](C)CC)C(=O)N(C)CC(=O)N(C)[C@H]3C/C=C\CCN(C3=O)[C@@H](Cc3ccc(C(F)(F)F)cc3)C(=O)N(C)CC(=O)N[C@@H](CCc3ccc(Cl)c(Cl)c3)C(=O)N2C1 [PP1326],NRAS/KRAS (ratio of KD value for GDP-bound NRAS wild-type protein to KD value for KRAS),[1],AA (a compound having 20 or more is denoted as AA)
same,HRAS/KRAS (ratio of KD value for GDP-bound HRAS wild-type protein to KD value for KRAS),[2],A (a compound having 10 or more and less than 20 is denoted as A)
CCO[C@@H]1C[C@H]2C(=O)NC3(CCC3)C(=O)N(C)[C@@H](C3CCCC3)C(=O)N(C)[C@H](C(=O)N(C)CCOC)CC(=O)N(C)[C@@H](CC3CC3)C(=O)N[C@@H]([C@@H](C)CC)C(=O)N(C)CC(=O)N(C)[C@H]3C/C=C\CCN(C3=O)[C@@H](Cc3ccc(C(F)(F)F)cc3)C(=O)N(C)CC(=O)N[C@@H](CCc3ccc(C(F)(F)F)c(OC)c3)C(=O)N2C1 [PP1327],NRAS/KRAS (ratio of KD value for GDP-bound NRAS wild-type protein to KD value for KRAS),[1],A (a compound having 10 or more and less than 20 is denoted as A)
same,HRAS/KRAS (ratio of KD value for GDP-bound HRAS wild-type protein to KD value for KRAS),[2],A (a compound having 10 or more and less than 20 is denoted as A)
CCO[C@@H]1C[C@H]2C(=O)NC3(CCC3)C(=O)N(C)[C@@H](C3CCCC3)C(=O)N(C)[C@H](C(=O)N(C)CCOC)CC(=O)N(C)[C@@H](CC3CC3)C(=O)N[C@@H]([C@@H](C)CC)C(=O)N(C)CC(=O)N(C)[C@H]3C/C=C\CCN(C3=O)[C@@H](Cc3ccc(C(F)(F)F)cc3)C(=O)N(C)CC(=O)N[C@@H](CCc3ccc4sccc4c3)C(=O)N2C1 [PP1328],NRAS/KRAS (ratio of KD value for GDP-bound NRAS wild-type protein to KD value for KRAS),[1],A (a compound having 10 or more and less than 20 is denoted as A)
same,HRAS/KRAS (ratio of KD value for GDP-bound HRAS wild-type protein to KD value for KRAS),[2],A (a compound having 10 or more and less than 20 is denoted as A)
CCO[C@@H]1C[C@H]2C(=O)NC3(CCC3)C(=O)N(C)[C@@H](C3CCCC3)C(=O)N(C)[C@H](C(=O)N(C)CCOC)CC(=O)N(C)[C@@H](CC3CC3)C(=O)N[C@@H]([C@@H](C)CC)C(=O)N(C)CC(=O)N(C)[C@H]3C/C=C\CCN(C3=O)[C@@H](Cc3ccc(C(F)(F)F)cc3)C(=O)N(C)CC(=O)N[C@@H](CCc3ccc(Cl)c(Cl)c3)C(=O)N2C1 [PP1329],NRAS/KRAS (ratio of KD value for GDP-bound NRAS wild-type protein to KD value for KRAS),[1],AA (a compound having 20 or more is denoted as AA)
same,HRAS/KRAS (ratio of KD value for GDP-bound HRAS wild-type protein to KD value for KRAS),[2],A (a compound having 10 or more and less than 20 is denoted as A)
CCO[C@@H]1C[C@H]2C(=O)NC3(CCC3)C(=O)N(C)[C@@H](C(CC)CC)C(=O)N(C)[C@H](C(=O)N(C)CCOC)CC(=O)N(C)[C@@H](CC)C(=O)N[C@@H]([C@@H](C)CC)C(=O)N(C)CC(=O)N(C)[C@H]3C/C=C\CCN(C3=O)[C@@H](Cc3ccc(C(F)(F)F)cc3)C(=O)N(C)CC(=O)N[C@@H](CCc3cc(F)c(C(F)(F)F)c(F)c3)C(=O)N2C1 [PP1330],NRAS/KRAS (ratio of KD value for GDP-bound NRAS wild-type protein to KD value for KRAS),[1],AA (a compound having 20 or more is denoted as AA)
same,HRAS/KRAS (ratio of KD value for GDP-bound HRAS wild-type protein to KD value for KRAS),[2],A (a compound having 10 or more and less than 20 is denoted as A)
CCC[C@H]1C(=O)N[C@@H]([C@@H](C)CC)C(=O)N(C)CC(=O)N(C)[C@H]2C/C=C\CCN(C2=O)[C@@H](Cc2ccc(C(F)(F)F)cc2)C(=O)N(C)CC(=O)N[C@@H](CCc2cc(F)c(C(F)(F)F)c(F)c2)C(=O)N2C[C@H](OCC)C[C@H]2C(=O)NC2(CCC2)C(=O)N(C)[C@@H](C2CCCC2)C(=O)N(C)[C@H](C(=O)N(C)CCOC)CC(=O)N1C [PP1331],NRAS/KRAS (ratio of KD value for GDP-bound NRAS wild-type protein to KD value for KRAS),[1],A (a compound having 10 or more and less than 20 is denoted as A)
same,HRAS/KRAS (ratio of KD value for GDP-bound HRAS wild-type protein to KD value for KRAS),[2],A (a compound having 10 or more and less than 20 is denoted as A)
CCO[C@@H]1C[C@H]2C(=O)NC3(CCC3)C(=O)N(C)[C@@H](C3CCCC3)C(=O)N(C)[C@H](C(=O)N(C)C)CC(=O)N(C)[C@@H](CC)C(=O)N[C@@H]([C@@H](C)CC)C(=O)N(C)CC(=O)N(C)[C@H]3CC/C=C(/C)CN(C3=O)[C@@H](Cc3ccc(C(F)(F)F)cc3)C(=O)N(C)CC(=O)N[C@@H](CCc3cc(F)c(C(F)(F)F)c(F)c3)C(=O)N2C1 [PP1334],NRAS/KRAS (ratio of KD value for GDP-bound NRAS wild-type protein to KD value for KRAS),[1],B (a compound having 3 or more and less than 10 is denoted as B)
same,HRAS/KRAS (ratio of KD value for GDP-bound HRAS wild-type protein to KD value for KRAS),[2],B (a compound having 3 or more and less than 10 is denoted as B)
